Reference: US20230190717A1, “P38 GAMMA INHIBITORS AND METHOD OF USE THEREOF” (City of Hope, priority 2017, published 2023)
Like-named read-outs stand apart in the source and are kept apart here.

Key:
[1] = system: Hut78 cells; experiment: CellTiterGlo cell viability, Hut78; format: cell-based, human
Method: Viability assays using trypan blue exclusion and CellTiterGlo Cell Viability Assay: Cell viability was calculated by diluting cell suspensions 1:1 in 0.4% TRYPAN BLUE solution (Sigma, St. Louis, Mo.) and counting the number of viable cells using a TC20™ automated cell counter (Bio-Rad, Irvine, Calif.) that automatically excludes the number of non-viable cells stained with trypan blue per total cells. […] All data points are an average of triplicate experiments.
Absorbance was monitored at 490 nm using an automated BMG PHERAstar plate reader (BMG Labtech). […] All experiments are repeated in three independent experiments and data represented are the average of triplicate experiments.

[2] = system: Hut78 cells; experiment: NanoString RNA gene expression profiling, Hut78; format: cell-based, human; conditions: 50 nM, 10 h
Method: All samples were validated. Data were analyzed using nSolver 3.0 digital analyzer software and R program.

[3] = system: Hut78 xenografts; conditions: for tumor growth: intraperitoneal, vs vehicle
Method: Female and male 6-week-old NSG mice (NOD-scid IL2Rγ null) were purchased from Jackson Laboratory (Sacramento, Calif.). Hut78 cells were used for developing CTCL xenograft tumors. Briefly, 5 million cells in 100 μL (50% Matrigel/50% PBS) were injected subcutaneously into the right flank of each mouse, and tumor development was monitored every other day. Once the tumors are were palpable and reached 100 mm^3 in volume, treatment was commenced. […] Mice were treated every two days via intraperitoneal injection. Tumors were measured twice per week using calipers.

[4] = molecular target: PI3K p110γ (Homo sapiens, UniProt P48736); conditions: summarized from Selleck and Apexbio; read-out: IC50 of PI3K Isoforms, p110γ; cited from earlier work
Chain of PI3K p110γ (P48736 whole entry, canonical isoform): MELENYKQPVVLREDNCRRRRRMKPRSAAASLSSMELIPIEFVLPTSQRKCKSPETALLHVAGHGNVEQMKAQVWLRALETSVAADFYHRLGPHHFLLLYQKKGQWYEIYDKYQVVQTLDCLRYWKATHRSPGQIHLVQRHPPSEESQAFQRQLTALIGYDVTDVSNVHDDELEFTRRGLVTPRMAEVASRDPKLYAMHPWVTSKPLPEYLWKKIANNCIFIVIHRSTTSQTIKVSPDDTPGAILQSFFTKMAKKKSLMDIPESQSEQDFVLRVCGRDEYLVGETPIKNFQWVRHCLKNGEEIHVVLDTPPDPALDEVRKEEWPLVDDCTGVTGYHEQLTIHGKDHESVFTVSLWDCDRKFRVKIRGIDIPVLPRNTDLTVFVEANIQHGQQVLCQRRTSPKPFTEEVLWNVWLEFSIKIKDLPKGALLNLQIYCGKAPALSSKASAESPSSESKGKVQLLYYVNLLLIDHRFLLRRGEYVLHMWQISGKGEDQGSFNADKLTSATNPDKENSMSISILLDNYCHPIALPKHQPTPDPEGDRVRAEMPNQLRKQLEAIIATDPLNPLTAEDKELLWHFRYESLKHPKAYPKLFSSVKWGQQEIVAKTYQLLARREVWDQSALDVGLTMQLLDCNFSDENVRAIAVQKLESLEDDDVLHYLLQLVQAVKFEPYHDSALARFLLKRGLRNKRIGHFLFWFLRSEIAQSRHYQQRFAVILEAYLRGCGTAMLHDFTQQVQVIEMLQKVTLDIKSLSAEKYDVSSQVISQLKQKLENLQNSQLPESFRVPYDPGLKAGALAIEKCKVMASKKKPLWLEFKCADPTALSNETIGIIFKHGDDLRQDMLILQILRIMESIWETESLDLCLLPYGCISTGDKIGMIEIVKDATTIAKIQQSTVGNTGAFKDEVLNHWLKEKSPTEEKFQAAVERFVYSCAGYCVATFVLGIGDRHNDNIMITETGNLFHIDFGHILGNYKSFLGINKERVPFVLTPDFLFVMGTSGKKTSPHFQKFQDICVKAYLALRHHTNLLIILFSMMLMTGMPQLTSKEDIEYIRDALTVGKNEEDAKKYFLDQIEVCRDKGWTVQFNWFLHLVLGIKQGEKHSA

## Cc1ccc([N+](=O)[O-])cc1S(=O)(=O)N(C)/N=C/c1cnc2ccc(Br)cn12 [Compound 1]
[1]; Hut78, 100 nM
  cell viability: significantly reduced viability
[1]; varying concentrations, 72 hr
  effect on viability of Hut78 cells: dose-dependent inhibition of cell viability
[2]; IL-6 Signaling
  Activation z-score: −3.109
[2]; NF-kB signaling
  Activation z-score: −3.623
[2]; PI3K signaling
  Activation z-score: −3.108
[2]; PI3KI/AKT signaling
  Activation z-score: −0.63
[2]; PTEN
  Activation z-score: 1.25
[2]; Role of NFAT in regulation of the immune response
  Activation z-score: −3.962
[2]; Th1 pathway
  Activation z-score: −3.533
[2]; Th2 pathway
  Activation z-score: −2.236
[2]; Wnt/B-catenin signaling
  Activation z-score: 1.152
[3]; 2 mg/kg
  tumor growth: statistically significant inhibition of tumor growth
[3]; 10 mg/kg
  tumor growth: further significant reduction of tumor size
[3]; 10 mg/kg, listed as F7/PIK75
  tumor growth: significantly inhibited tumor growth
[3]; mouse, in vivo
  toxic effects in animal studies: did not observe any toxic effects
[4]
  IC50: 76 nM
